These results are taken from patent US5578570A, “Method of treating septic shock using thymosin β4” (The George Washington University Medical Center, priority 1994, dated 1996).

Experiment [1] deals with TNFα. Kind of experiment: TNFα levels in a septic shock model in rat. Format: in vivo. Conditions: rats with septic shock + Tβ4 1 mg/rat × 3. From the text: (§1) Using a septic shock model in rats (Sprague-Dawley, male, 200-225 g each), the effect of thymosin β4 alone and together with antibiotics was studied. Peritonitis was induced in rats in the following way. A 1-cm incision was made into the peritoneal which exposed the cecum. A tight ligature was placed around the cecum with 4-0 suture distal to the insertion of the small bowel, forming an area of devitalized tissue while maintaining bowel continuity. A puncture wound was made with 16-gauge needle into the anti-mesenteric surface of the cecum and a small amount of fecal contents was expressed through the wound. The cecum was replaced into the peritoneal cavity, and the anterior peritoneal wall and skin were closed with surgical staples. Each animal was given a bolus of normal saline (15 ml/kg) for hydration and allowed to recover overnight.
(§2) The results presented in Tables XV to XVIII below show effects of Tβ4 respectively on rat cytokine levels, blood malonyldialdehyde levels, glutathione levels and arachidonic acid metabolic levels.

The test system of experiment [2] is T × β2. Kind of experiment: T×β2 levels in a septic shock model in rat. The class given is in vivo. The note with it: rats with septic shock + Tβ4 1 mg/rat × 3.
Excerpt: as §1, §2

Regarding Thymosin β4 [Tβ4], in experiment [1], the TNFα is 1259 ± 138 pg/mL. Besides, in experiment [2], the “T × β2” value came out at 1627 ± 123 pg/mL.
